Results from ChEMBL document CHEMBL1201862, “PubChem BioAssay data set” (2004).
The source made the active and inactive calls.

Legend:
[1] = target: Alkaline phosphatase, placental type (Homo sapiens, UniProt P05187); assay: human placental alkaline phosphatase inhibition – biochemical, luminescence, confirmation (AID 1512); assay type: functional
[2] = target: T1, Alkaline phosphatase, tissue-nonspecific isozyme (Homo sapiens, UniProt P05186); assay: potency against alkaline phosphatase TNAP – biochemical, luminescent, dose response, SAR follow-up (AID 1056)
T1 sequence (P05186 whole entry): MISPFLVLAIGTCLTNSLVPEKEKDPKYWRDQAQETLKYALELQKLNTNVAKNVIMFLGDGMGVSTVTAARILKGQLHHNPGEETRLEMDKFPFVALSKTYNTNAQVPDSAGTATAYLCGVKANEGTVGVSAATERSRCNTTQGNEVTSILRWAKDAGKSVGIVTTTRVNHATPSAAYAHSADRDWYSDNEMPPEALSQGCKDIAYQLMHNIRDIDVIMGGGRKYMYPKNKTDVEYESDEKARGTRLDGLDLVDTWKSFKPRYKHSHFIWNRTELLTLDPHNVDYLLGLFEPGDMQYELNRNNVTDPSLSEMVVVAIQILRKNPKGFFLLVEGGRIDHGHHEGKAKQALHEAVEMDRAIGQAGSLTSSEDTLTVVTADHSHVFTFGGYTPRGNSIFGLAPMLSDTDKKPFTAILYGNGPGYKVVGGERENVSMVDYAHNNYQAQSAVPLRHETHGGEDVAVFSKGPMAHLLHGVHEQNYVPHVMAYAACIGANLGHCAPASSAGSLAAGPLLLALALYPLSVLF

[3] = test system: HEK293; assay: cells; assay type: functional, cell-based; conditions: Homo sapiens
[4] = target: T2, Nuclear receptor subfamily 0 group B member 1 (Homo sapiens, UniProt P51843); assay: Luminescence-based cell-based high throughput dose response assay for inhibitors of the orphan nuclear receptor subfamily 0, group B, member 1 (DAX1; NR0B1). [Related pubchem assays (depositor defined):AID504766, AID504790]; assay type: functional
T2 sequence (P51843 whole entry): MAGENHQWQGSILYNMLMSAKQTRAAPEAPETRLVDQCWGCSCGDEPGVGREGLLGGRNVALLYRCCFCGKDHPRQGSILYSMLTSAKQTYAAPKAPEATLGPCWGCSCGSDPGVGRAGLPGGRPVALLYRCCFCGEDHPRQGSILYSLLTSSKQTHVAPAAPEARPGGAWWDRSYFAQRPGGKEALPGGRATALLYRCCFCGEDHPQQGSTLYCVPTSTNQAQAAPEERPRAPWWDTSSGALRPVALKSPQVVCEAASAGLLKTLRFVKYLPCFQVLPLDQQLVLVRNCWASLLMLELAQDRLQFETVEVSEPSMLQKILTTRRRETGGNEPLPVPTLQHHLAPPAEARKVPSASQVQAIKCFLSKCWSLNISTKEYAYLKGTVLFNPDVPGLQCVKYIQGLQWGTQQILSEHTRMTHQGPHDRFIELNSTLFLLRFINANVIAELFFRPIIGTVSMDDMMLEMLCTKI

[5] = test system: CHO; assay: CHO cell viability loss, potency – luminescence, cytotoxicity control for TLR9-MyD88 binding inhibitor project, dose response (AID 588339); assay type: functional, cell-based, hamster; conditions: Cricetulus griseus;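 also: CHO cells stably coexpressing TLR9 and MyD88 fusions from primary screen; compound exposure lasted 48 hours before viability readout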
[6] = target: T3, High affinity choline transporter 1 (Homo sapiens, UniProt Q9GZV3); assay: human choline transporter blockers, potency – cell-based, 10-point CRC, membrane potential dye, dose response (AID 588401); assay type: functional;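 also: membrane potential dye fluorescence of choline-evoked depolarization via CHT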
T3 sequence (Q9GZV3 whole entry): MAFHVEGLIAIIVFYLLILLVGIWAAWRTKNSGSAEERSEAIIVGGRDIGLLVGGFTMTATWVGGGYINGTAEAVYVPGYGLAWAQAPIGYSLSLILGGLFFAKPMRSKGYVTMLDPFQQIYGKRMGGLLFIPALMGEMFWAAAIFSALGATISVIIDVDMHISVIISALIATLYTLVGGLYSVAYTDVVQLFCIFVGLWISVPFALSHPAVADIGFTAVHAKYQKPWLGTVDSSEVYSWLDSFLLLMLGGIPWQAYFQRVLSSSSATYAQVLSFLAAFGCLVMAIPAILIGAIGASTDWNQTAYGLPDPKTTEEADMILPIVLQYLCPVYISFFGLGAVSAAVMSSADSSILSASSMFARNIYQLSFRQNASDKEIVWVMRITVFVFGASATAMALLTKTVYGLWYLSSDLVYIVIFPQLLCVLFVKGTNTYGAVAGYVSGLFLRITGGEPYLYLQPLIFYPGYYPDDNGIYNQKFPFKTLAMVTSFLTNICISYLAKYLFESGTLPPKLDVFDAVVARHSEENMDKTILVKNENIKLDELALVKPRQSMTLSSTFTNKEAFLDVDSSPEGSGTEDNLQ

[7] = target: T3, High affinity choline transporter 1; assay: human choline transporter blockers, potency – cell-based, 5-point CRC, membrane potential dye, dose response (AID 504840); assay type: functional
[8] = target: T4, Mannose-6-phosphate isomerase (Homo sapiens, UniProt P34949); assay: phosphomannose isomerase inhibition – biochemical, fluorescence intensity, confirmation (AID 1535)
T4 sequence (P34949 whole entry): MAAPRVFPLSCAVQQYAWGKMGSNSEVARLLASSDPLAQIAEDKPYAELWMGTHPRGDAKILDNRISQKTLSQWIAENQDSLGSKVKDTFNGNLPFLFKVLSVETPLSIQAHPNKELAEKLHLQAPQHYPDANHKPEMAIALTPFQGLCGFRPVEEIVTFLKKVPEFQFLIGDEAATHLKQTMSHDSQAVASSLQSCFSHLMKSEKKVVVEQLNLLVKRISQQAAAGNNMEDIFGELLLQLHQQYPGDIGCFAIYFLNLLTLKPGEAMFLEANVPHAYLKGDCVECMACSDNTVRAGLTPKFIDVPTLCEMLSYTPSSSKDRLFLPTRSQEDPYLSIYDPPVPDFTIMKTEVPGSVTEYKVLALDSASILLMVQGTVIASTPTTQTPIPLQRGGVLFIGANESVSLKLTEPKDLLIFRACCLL

[9] = target: Adenosylmethionine-8-amino-7-oxononanoate aminotransferase (Mycobacterium tuberculosis, UniProt P9WQ81); assay: Mycobacterium tuberculosis BioA enzyme inhibitor Measured in Biochemical System Using Plate Reader - 2163-02_Inhibitor_Dose_CherryPick_Activity.; assay type: functional, Mycobacterium tuberculosis UT205
[10] = target: T5, Hexokinase (Trypanosoma brucei, UniProt Q38C41); assay: Confirmation assay for inhibitors of Trypanosoma brucei hexokinase 1-Analogue-first series. [Related pubchem assays (depositor defined):AID1430, AID1632, AID2516, AID2560, AID2579, AID2600, AID449725, AID492951]; assay type: functional
T5 sequence (Q38C41 whole entry): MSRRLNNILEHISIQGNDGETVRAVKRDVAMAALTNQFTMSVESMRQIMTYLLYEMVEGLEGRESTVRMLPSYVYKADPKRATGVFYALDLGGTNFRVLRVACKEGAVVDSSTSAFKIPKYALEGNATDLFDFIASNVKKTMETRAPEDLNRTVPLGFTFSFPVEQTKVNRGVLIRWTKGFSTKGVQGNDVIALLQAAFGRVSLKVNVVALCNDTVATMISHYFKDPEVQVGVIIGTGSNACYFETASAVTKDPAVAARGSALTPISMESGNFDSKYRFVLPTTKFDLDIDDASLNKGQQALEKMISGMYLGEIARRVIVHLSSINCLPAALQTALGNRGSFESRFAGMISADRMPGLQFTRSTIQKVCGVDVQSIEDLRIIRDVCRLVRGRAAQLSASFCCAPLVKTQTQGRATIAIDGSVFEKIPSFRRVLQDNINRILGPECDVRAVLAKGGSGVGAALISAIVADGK

[11] = target: Glyceraldehyde-3-phosphate dehydrogenase (Homo sapiens, UniProt P04406)
[12] = target: T6, Coagulation factor XII (Homo sapiens, UniProt P00748); assay type: functional;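 also: activated factor XIIa alpha cleaving a fluorogenic AMC peptide substrate; inhibitor potency from loss of enzyme activity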
T6 sequence (P00748 whole entry): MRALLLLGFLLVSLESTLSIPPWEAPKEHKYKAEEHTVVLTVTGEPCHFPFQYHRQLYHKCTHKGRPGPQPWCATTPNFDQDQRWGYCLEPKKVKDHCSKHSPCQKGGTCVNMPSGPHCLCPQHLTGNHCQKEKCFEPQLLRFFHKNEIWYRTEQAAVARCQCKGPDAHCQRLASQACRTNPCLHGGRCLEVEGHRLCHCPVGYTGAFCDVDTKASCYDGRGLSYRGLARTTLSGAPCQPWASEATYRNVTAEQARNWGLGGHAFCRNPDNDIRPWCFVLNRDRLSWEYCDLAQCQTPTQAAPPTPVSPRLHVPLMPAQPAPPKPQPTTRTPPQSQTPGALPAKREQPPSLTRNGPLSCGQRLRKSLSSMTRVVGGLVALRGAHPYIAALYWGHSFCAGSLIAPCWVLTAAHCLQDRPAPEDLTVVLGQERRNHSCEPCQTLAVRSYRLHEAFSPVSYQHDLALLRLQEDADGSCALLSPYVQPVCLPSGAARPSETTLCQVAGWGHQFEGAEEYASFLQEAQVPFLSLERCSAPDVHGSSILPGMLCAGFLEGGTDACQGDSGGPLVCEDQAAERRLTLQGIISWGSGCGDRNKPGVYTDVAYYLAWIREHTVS

[13] = target: Cytochrome P450 2D6 (Homo sapiens, UniProt P10635);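 also: CYP2D6 member of a cytochrome P450 panel assay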
[14] = test system: HeLa; assay: ATP-based viability loss in HeLa cells – cell-based, CellTiter-Glo luminescence, cherry-pick samples, cytotoxicity control for MITF activator project, dose response (AID 540259); assay type: functional; conditions: Homo sapiens
[15] = target: Voltage-dependent T-type calcium channel subunit alpha-1H (Homo sapiens, UniProt O95180); assay type: functional;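 also: channel activity triggered by adding a high calcium stimulation buffer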
[16] = target: Ras and Rab interactor 1/Tyrosine-protein kinase ABL1 (Homo sapiens, UniProt P00519+Q13671); assay type: functional;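 also: biochemical TR-FRET dose-response test measuring inhibition of binding between Rin1 and Abl proteins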
[17] = target: T7, Heat shock factor protein 1 (Mus musculus, UniProt P38532); assay: enhancement of HSF1-driven luciferase signal – cell-based, NIH3T3, luminescence, dose retest, confirmation (AID 435004); assay type: functional;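 also: stress induced by proteasome inhibitor MG132 added 30 min after compound; luciferase reporter driven by HSF1 response element in NIH3T3 cells; actives raise luminescence as potentiators of the MG132 stress response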
T7 sequence (P38532 whole entry): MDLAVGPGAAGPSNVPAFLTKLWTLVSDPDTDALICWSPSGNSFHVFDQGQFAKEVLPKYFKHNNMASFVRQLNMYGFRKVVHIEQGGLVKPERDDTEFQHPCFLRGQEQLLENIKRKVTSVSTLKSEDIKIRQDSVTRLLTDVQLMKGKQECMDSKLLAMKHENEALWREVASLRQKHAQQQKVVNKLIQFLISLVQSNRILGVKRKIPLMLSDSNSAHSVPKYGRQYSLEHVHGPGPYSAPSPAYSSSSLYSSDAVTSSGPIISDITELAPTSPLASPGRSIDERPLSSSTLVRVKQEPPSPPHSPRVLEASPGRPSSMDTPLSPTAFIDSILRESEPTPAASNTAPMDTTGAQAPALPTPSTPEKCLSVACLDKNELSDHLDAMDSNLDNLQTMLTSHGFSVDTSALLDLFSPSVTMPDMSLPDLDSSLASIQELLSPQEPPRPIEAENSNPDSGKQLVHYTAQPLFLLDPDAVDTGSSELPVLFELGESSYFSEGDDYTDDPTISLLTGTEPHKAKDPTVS

[18] = test system: H9c2; assay: cells; assay type: functional, cell-based; conditions: Rattus norvegicus, H9c2, Myocardium;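 also: confirmatory concentration-response retest of ultra-high-throughput screening hits for modulation of myocardial damage; cell death induced by hydrogen peroxide oxidative stress; compound pretreatment for 60 min then peroxide exposure for 2 h; potency is for protecting the cells against peroxide damage rather than for killing them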
[19] = target: Prothrombin (Bos taurus, UniProt P00735); assay: thrombin protease inhibitors – biochemical, fluorescence polarization, uHTS hits, dose response (AID 602369); assay type: functional
[20] = target: 72 kDa type IV collagenase (Homo sapiens, UniProt P08253); assay: Dose Response validation of uHTS RPN11 inhibitor hits using a MMP-2 Fluorescence assay.; assay type: functional
[21] = target: 26S proteasome non-ATPase regulatory subunit 14 (Homo sapiens, UniProt O00487); assay: inhibition of proteasome subunit RPN11 – biochemical, fluorescence polarization, uHTS hits, confirmation (AID 602368); assay type: functional
26S proteasome non-ATPase regulatory subunit 14, sequence (O00487 whole entry): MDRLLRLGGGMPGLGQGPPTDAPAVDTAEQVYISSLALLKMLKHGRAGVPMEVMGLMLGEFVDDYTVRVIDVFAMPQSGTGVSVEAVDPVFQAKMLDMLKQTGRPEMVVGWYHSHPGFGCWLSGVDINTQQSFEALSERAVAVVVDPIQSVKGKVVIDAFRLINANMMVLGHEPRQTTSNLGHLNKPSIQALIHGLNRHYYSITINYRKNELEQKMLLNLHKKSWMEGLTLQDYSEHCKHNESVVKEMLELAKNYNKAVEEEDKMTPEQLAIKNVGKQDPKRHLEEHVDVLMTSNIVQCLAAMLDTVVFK

Alkaline phosphatase, placental type, sequence (P05187 whole entry): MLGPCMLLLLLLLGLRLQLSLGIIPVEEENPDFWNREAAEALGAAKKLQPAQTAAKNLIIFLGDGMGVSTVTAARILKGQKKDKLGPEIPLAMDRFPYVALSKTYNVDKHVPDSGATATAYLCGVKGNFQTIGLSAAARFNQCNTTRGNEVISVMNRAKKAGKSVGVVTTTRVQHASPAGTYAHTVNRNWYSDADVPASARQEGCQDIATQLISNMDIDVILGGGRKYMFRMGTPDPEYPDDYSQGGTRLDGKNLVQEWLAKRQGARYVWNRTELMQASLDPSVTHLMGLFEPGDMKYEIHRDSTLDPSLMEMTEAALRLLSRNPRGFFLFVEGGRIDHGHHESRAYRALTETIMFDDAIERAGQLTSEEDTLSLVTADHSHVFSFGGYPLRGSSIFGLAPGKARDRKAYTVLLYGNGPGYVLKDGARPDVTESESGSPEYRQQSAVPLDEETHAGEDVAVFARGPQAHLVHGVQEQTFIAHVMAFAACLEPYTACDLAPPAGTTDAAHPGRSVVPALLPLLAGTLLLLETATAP
Adenosylmethionine-8-amino-7-oxononanoate aminotransferase, sequence (P9WQ81 whole entry): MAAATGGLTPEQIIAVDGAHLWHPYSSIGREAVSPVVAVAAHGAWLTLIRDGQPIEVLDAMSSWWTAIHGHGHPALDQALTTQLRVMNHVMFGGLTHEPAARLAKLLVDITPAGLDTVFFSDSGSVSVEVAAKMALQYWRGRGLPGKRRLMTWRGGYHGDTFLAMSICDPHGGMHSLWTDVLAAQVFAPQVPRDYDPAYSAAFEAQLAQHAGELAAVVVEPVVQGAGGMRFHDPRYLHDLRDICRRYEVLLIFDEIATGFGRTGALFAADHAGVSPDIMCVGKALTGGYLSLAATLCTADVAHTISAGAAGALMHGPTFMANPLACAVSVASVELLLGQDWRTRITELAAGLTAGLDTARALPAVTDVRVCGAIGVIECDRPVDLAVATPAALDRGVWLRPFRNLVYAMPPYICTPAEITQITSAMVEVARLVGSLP
72 kDa type IV collagenase, sequence (P08253 whole entry): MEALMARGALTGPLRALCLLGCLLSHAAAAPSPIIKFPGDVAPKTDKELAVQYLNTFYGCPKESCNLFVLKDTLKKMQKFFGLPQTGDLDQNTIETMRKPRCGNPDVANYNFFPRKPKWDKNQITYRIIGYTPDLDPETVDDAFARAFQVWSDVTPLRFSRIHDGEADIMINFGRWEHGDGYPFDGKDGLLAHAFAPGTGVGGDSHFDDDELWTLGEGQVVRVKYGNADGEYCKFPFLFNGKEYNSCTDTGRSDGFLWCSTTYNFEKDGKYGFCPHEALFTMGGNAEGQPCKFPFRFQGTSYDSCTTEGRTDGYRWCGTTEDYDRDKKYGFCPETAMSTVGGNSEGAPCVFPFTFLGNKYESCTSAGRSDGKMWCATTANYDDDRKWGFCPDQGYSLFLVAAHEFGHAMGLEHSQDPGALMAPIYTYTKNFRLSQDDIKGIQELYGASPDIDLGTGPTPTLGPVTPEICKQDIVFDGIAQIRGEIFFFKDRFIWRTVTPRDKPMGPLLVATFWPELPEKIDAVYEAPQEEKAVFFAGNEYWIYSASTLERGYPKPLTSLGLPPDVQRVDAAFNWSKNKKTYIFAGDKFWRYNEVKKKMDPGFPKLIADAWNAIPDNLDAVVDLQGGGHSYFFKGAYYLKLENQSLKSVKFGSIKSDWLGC
Ras and Rab interactor 1/Tyrosine-protein kinase ABL1, sequence (P00519 whole entry): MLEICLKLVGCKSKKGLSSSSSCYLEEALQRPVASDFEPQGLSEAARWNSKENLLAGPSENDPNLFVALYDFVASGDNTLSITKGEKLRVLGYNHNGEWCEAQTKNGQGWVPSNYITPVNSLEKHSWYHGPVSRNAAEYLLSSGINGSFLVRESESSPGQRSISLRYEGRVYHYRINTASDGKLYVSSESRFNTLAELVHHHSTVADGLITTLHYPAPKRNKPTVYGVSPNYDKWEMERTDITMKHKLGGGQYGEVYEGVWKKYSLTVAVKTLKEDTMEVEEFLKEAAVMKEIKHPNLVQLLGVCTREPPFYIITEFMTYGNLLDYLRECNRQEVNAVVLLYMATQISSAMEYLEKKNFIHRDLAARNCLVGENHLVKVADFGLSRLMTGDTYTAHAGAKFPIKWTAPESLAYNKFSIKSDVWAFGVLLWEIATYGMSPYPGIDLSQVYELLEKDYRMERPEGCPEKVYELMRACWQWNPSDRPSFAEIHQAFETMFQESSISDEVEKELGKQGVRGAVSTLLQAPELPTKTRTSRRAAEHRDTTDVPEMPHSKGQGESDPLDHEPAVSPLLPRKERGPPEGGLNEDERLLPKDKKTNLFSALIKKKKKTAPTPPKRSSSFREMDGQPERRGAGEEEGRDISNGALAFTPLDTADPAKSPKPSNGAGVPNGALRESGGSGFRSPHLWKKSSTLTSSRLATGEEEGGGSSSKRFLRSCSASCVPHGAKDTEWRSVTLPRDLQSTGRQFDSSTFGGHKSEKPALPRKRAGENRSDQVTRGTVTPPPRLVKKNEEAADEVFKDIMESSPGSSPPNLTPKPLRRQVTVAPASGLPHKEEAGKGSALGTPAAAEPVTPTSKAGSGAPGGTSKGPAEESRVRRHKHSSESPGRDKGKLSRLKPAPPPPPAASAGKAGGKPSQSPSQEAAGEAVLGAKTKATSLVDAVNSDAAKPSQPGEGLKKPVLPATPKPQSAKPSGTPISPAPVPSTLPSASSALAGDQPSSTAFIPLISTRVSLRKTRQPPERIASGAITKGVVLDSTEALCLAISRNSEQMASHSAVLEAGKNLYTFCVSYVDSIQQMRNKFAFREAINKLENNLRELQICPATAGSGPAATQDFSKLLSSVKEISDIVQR
Ras and Rab interactor 1/Tyrosine-protein kinase ABL1, sequence (Q13671 whole entry): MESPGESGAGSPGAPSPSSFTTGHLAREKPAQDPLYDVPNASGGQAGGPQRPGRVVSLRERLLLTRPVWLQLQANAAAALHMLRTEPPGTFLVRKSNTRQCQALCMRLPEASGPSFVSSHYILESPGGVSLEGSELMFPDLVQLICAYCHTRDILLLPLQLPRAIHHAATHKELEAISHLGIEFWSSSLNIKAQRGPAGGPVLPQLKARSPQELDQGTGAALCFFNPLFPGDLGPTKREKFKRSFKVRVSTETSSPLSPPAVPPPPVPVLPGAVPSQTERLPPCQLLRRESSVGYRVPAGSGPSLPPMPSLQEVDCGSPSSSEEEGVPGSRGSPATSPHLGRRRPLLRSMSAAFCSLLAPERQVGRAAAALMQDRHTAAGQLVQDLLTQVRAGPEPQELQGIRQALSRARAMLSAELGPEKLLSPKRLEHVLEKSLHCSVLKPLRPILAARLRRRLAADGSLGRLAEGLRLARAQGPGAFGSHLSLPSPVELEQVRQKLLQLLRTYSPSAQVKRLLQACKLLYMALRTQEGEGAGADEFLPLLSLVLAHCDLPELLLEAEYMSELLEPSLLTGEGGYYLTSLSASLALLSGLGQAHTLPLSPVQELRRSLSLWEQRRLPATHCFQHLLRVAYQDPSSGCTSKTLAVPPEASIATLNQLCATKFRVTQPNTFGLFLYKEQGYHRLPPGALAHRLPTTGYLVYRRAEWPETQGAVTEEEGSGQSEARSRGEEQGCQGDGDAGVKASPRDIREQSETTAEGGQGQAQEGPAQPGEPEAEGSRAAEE
Glyceraldehyde-3-phosphate dehydrogenase, sequence (P04406 whole entry): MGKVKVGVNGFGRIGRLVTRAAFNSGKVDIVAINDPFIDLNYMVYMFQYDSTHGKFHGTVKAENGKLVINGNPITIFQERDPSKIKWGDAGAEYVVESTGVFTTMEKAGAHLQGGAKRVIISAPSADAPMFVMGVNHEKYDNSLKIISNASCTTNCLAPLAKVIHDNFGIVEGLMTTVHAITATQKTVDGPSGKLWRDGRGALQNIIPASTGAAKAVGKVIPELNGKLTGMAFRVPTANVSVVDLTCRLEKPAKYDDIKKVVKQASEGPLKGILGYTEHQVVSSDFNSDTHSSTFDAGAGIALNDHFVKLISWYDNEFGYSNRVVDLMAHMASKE
Cytochrome P450 2D6, sequence (P10635 whole entry): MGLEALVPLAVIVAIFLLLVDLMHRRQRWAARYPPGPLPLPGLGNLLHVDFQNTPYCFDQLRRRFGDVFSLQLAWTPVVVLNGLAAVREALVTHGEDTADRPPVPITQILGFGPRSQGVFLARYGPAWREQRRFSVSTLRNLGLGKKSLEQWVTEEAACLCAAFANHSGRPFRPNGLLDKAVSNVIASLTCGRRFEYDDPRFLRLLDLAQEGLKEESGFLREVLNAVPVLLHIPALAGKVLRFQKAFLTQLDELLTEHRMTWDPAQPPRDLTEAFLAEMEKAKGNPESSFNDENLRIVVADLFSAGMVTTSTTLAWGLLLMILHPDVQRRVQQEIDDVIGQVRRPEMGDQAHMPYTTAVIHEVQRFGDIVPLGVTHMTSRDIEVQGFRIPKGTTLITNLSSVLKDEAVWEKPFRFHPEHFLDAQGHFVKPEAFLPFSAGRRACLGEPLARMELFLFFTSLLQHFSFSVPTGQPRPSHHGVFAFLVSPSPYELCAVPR

C=CCn1c(SCC(=O)c2ccc(O)c(O)c2)nnc1-c1ccccc1
IC50 [1]: 2.53 µM (active) | IC50 [2]: 19.5 µM (active)

O=C(COC(=O)c1[nH]nc2ccccc12)Nc1ccccc1
IC50 [3]: > 67.5 µM (inactive) | IC50 [4]: > 67.5 µM (inactive)

O=C(NCc1cccc(C(F)(F)F)c1)c1cccc2c1C(=O)c1ccc(N3CCC(Cc4ccccc4)CC3)cc1S2(=O)=O
IC50 [5]: > 49.8 µM (inactive)

CCSc1nnc(NC(=O)C(C)(C(F)(F)F)C(F)(F)F)s1
IC50 [6]: 2.82 µM (active) | IC50 [7]: 3.47 µM (active)

Clc1ccnc(/N=c2\ssnc2Cl)c1
IC50 [8]: > 100 µM (inactive)

Cc1cc(C)n2nc(C(=O)Nc3cccnc3)nc2n1
AC50 [9]: 4.85 µM (active)

COC(=O)c1ccc(Cl)cc1NC(=O)c1ccc(Cl)cc1
IC50 [10]: > 25 µM (inactive)

O=C(O)c1cc(-c2cc(F)c(Cl)cc2Cl)n[nH]1
IC50 [1]: > 100 µM (inactive) | IC50 [2]: 1.09 µM (active) | IC50 [11]: > 100 µM (not active)

O=C(Cn1nnc(-c2ccccc2)n1)OCc1csc(-c2ccccc2)n1
IC50 [12]: > 50 µM (inactive)

Cc1csc(NC(=O)Cc2c[nH]c3ccccc23)n1
AC50 [13]: 22.4 µM (inconclusive) | AC50 [14]: 320 µM (active) | EC50 [15]: 9.34 µM (active) | IC50 [12]: > 50 µM (inactive)

Cc1ccccc1-n1nc(CSc2nc3ccccc3[nH]2)c(-c2ccccc2)c1N
IC50 [1]: > 100 µM (inactive)

O=c1[nH]n(CC2COC3(CCCCC3)O2)c(=O)c2ccccc12 (configuration not stated)
IC50 [16]: 12.5 µM (inactive) | EC50 [17]: 79 µM (active) | IC50 [18]: > 79 µM (inactive)

O=C1CSC(=S)N1N=Cc1ccc(Cl)s1
IC50 [19]: 27.1 µM (active) | IC50 [20]: > 100 µM (inactive) | IC50 [21]: 59.4 µM (active)

CCCCC(=O)C1CCN(Cc2ccccc2)CC1
IC50 [16]: 19.4 µM (inactive)

COc1ccc(C(=O)C[n+]2cccc(Br)c2)cc1
IC50 [6]: 1.19 µM (active) | IC50 [7]: 4.21 µM (active)

COc1ccc(C(=O)Nc2ccccc2C(=O)O)cc1
IC50 [10]: > 25 µM (inactive)

COc1ccc(-c2cc(C(=O)O)[nH]n2)c(OC)c1
IC50 [2]: 38.2 µM (active) | IC50 [11]: > 100 µM (not active)

COC(=O)c1ccc(N2NC(=O)/C(=C/c3cc(OC)c(O)c(OC)c3)C2=O)cc1
IC50 [19]: 27 µM (active) | IC50 [20]: 81.6 µM (active) | IC50 [21]: 18.5 µM (active)

COc1cc(-c2nnc(S)n2C(C)c2ccccc2)cc(OC)c1OC (configuration not stated)
AC50 [9]: 5.84 µM (active)

C#CCOc1nc(Nc2cccc([N+](=O)[O-])c2)nc(OCC#C)n1
IC50 [12]: > 50 µM (inactive) | IC50 [18]: > 79 µM (inactive)
